Measured values: patent US12162904B2, “Mannose derivative and application thereof” (priority 2021, dated 2024)

Key:
[1] = Determination of lipid-water partition coefficient (n-octanol/PBS); type: physicochemical; settings: n-octanol / PBS 0.025 M, pH 7.4
Description: To a 5 mL centrifuge tube were added 100 μL of a ^99mTc-CN7DM solution with a radioactivity of 10 μCi, 1 mL of n-octanol and 900 μL of phosphate buffered saline (PBS) (0.025 M and pH 7.4). The mixture was vortexed at a rotation speed of 2,500 rpm for 3 min, subjected to standing for stratification, and centrifuged at 9,000 rpm in a centrifuge for 5 min. Three samples (each for 100 μL) were taken from each of the two phases, and determined by a γ-counter for the radioactivity counts.

[2] = Stability in normal saline at room temperature (radiochemical purity by TLC); type: physicochemical; settings: 4 h
Description: (§1) The radiochemical purity of ^99mTc-CN7DM was determined by TLC after being placed in normal saline at room temperature and in mouse serum at 37° C. for 4 h.

[3] = Stability in mouse serum at 37° C. (radiochemical purity by TLC); type: in vitro ADME; settings: 4 h
Description: as §1

mice bearing S180 tumors = test: Biodistribution determination in tumor-bearing mice; type: in vivo; settings: for Blood uptake / Bone uptake / Heart uptake / Kidney uptake / Liver uptake / Lung uptake / Muscle uptake / Small intestine uptake / Spleen uptake / Thyroid gland uptake / Tumor uptake: n = 5, mean ± SD; for Tumor uptake: S180 tumor
Description: 0.1 mL of the ^99mTc-CN7DM labeling solution (370 kBq) was injected into mice bearing S180 tumors through the tail vein. After recording the injection time, the mice were subjected to sacrificing by cervical […] at different time points of 30 min and 120 min (5 mice were executed at each time), dissecting, taking out tissues or organs of interest such as heart, liver, lungs, kidneys, spleen, bone, muscles, small intestine, blood and tumors. A radioactivity count of each of the tissues or organs was measured by the γ-counter, and uptake value of each of the tissues or organs in % ID/g was obtained by converting a mass of each of the tissues or organs.

[4] = 30 min after tail vein injection
[5] = 120 min after tail vein injection

log P (lipid-water partition coefficient) [1]: −3.15±0.06
radiochemical purity after standing (stability) [2]: greater than 90%
radiochemical purity after standing (stability) [3]: greater than 90%
Tumor/Blood ratio (mice bearing S180 tumors; [4]): 3.79
Tumor/Muscle ratio (mice bearing S180 tumors; [4]): 3.25
Blood uptake (mice bearing S180 tumors; [4]): 1.61 ± 0.17 % ID/g
Bone uptake (mice bearing S180 tumors; [4]): 1.41 ± 0.17 % ID/g
Heart uptake (mice bearing S180 tumors; [4]): 2.08 ± 0.26 % ID/g
Kidney uptake (mice bearing S180 tumors; [4]): 6.22 ± 0.91 % ID/g
Liver uptake (mice bearing S180 tumors; [4]): 2.91 ± 0.23 % ID/g
Lung uptake (mice bearing S180 tumors; [4]): 1.86 ± 0.19 % ID/g
Muscle uptake (mice bearing S180 tumors; [4]): 1.88 ± 0.16 % ID/g
Small intestine uptake (mice bearing S180 tumors; [4]): 1.05 ± 0.20 % ID/g
Spleen uptake (mice bearing S180 tumors; [4]): 1.23 ± 0.11 % ID/g
Thyroid gland uptake (mice bearing S180 tumors; [4]): 0.04 ± 0.01 % ID
Tumor/Blood ratio (mice bearing S180 tumors; [5]): 63.48
Tumor/Muscle ratio (mice bearing S180 tumors; [5]): 6.18
Blood uptake (mice bearing S180 tumors; [5]): 0.09 ± 0.02 % ID/g
Bone uptake (mice bearing S180 tumors; [5]): 0.76 ± 0.17 % ID/g
Heart uptake (mice bearing S180 tumors; [5]): 1.40 ± 0.14 % ID/g
Kidney uptake (mice bearing S180 tumors; [5]): 3.12 ± 0.82 % ID/g
Liver uptake (mice bearing S180 tumors; [5]): 2.13 ± 0.46 % ID/g
Lung uptake (mice bearing S180 tumors; [5]): 0.76 ± 0.20 % ID/g
Muscle uptake (mice bearing S180 tumors; [5]): 0.96 ± 0.12 % ID/g
Small intestine uptake (mice bearing S180 tumors; [5]): 0.42 ± 0.13 % ID/g
Spleen uptake (mice bearing S180 tumors; [5]): 0.80 ± 0.15 % ID/g
Thyroid gland uptake (mice bearing S180 tumors; [5]): 0.02 ± 0.00 % ID
Tumor uptake (mice bearing S180 tumors; [4]): 6.11 ± 0.76 % ID/g
Tumor uptake (mice bearing S180 tumors; [5]): 5.92 ± 0.30 % ID/g
Structure (SMILES): [99Tc+].[C-]#[N+]CCCCCCCC(=O)NC1C(O)OC(CO)C(O)C1O.[C-]#[N+]CCCCCCCC(=O)NC1C(O)OC(CO)C(O)C1O.[C-]#[N+]CCCCCCCC(=O)NC1C(O)OC(CO)C(O)C1O.[C-]#[N+]CCCCCCCC(=O)NC1C(O)OC(CO)C(O)C1O.[C-]#[N+]CCCCCCCC(=O)NC1C(O)OC(CO)C(O)C1O.[C-]#[N+]CCCCCCCC(=O)NC1C(O)OC(CO)C(O)C1O (centres unmarked) [^99mTc-CN7DM]
